This is an account of results in US20240182487A1, “MACROCYCLES AND THEIR USE” (BLOSSOMHILL THERAPEUTICS, INC., priority 2020, published 2024).

Molecules are shown by their SMILES.

Holding throughout (format): biochemical
For assay [1], the target named is EGFR L858R/T790M/C797S mutant (Homo sapiens (Human), UniProt P00533, C797S/L858R/T790M). Description: HotSpot radiometric kinase assay, EGFR L858R/T790M/C797S. As to conditions: radiometric filter-binding, 10 μM ATP; read-out: EGFR (L858R/T790M/C797S/)_IC50.
Assay [2] has as its target EGFR (Δ746-750) (Homo sapiens (Human), UniProt P00533, DEL746-750). Nature of the assay: HotSpot radiometric kinase assay, EGFR Δ746-750. Particulars: radiometric filter-binding, 10 μM ATP.
Assay [3] concerns the target EGFR L858R mutant (Homo sapiens (Human), UniProt P00533, L858R). Nature of the assay: HotSpot radiometric kinase assay, EGFR L858R. Particulars: radiometric filter-binding, 10 μM ATP.
Assay [4] deals with EGFR WT (Homo sapiens (Human), UniProt P00533). Nature of the assay: HotSpot radiometric kinase assay, EGFR WT. Particulars: radiometric filter-binding, 10 μM ATP. As for the experimental part:
(§1) Biochemical Assays for Inhibition of Wild-Type and Mutant EGFRs
(§2) The inhibitory activities against EGFR WT, EGFR Δ752-759 mutant, EGFR Δ746-750/T790M mutant, EGFR Δ746-750/C797S mutant, EGFR Δ746-750/T790M/C797S mutant. […] Briefly, specific kinase/substrate pairs along with required cofactors were prepared in reaction buffer; 20 mM Hepes pH 7.5, 10 mM MgCl2, 1 mM EGTA, 0.02% Brij35, 0.02 mg/ml BSA, 0.1 mM Na3VO4, 2 mM DTT, 1% DMSO. Compounds were delivered into the reaction, followed ˜20 minutes later by addition of a mixture of ATP (Sigma, St. Louis MO) and ^33P ATP (Perkin Elmer, Waltham MA) to a final concentration of 10 μM. Reactions were carried out at room temperature for 120 min, followed by spotting of the reactions onto P81 ion exchange filter paper (Whatman Inc., Piscataway, NJ). Unbound phosphate was removed by extensive washing of filters in 0.75% phosphoric acid. […] IC50 values and curve fits were obtained using Prism (GraphPad Software).

For assay [5], the target named is EGFR Δ746-750/T790M mutant (Homo sapiens (Human), UniProt P00533, DEL746-750/T790M). Description: HotSpot radiometric kinase assay, EGFR Δ746-750/T790M. As to conditions: radiometric filter-binding, 10 μM ATP. The procedure: as §1, §2
The target in assay [6] is EGFR Δ746-750/C797S mutant (Homo sapiens (Human), UniProt P00533, C797S/DEL746-750). Description: HotSpot radiometric kinase assay, EGFR Δ746-750/C797S. Particulars: radiometric filter-binding, 10 μM ATP. The procedure: as §1, §2
For assay [7], the target named is EGFR Δ746-750/T790M/C797S mutant (Homo sapiens (Human), UniProt P00533, C797S/DEL746-750/T790M). Description: HotSpot radiometric kinase assay, EGFR Δ746-750/T790M/C797S. As to conditions: radiometric filter-binding, 10 μM ATP. As for the experimental part:
as §1, §2

Chain of EGFR Δ746-750/C797S mutant (P00533 other isoform, or with tags, fused parts or gaps C797S/del 1-668/del 746-750 limits assumed): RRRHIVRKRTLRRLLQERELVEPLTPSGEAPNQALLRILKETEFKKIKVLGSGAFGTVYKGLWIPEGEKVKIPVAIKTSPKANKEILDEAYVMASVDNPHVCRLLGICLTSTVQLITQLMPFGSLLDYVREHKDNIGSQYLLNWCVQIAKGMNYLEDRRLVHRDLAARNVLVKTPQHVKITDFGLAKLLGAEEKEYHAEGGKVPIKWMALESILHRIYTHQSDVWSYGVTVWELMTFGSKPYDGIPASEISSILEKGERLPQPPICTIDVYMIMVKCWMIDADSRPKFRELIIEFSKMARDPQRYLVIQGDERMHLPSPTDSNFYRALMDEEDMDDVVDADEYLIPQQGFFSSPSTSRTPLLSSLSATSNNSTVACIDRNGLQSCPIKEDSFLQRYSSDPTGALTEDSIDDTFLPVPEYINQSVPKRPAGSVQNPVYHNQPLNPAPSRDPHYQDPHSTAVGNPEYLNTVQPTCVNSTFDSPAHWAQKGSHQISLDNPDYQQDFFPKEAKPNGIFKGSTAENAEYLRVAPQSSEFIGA
Chain of EGFR Δ746-750/T790M mutant (P00533 other isoform, or with tags, fused parts or gaps T790M/del 1-668/del 746-750 limits assumed): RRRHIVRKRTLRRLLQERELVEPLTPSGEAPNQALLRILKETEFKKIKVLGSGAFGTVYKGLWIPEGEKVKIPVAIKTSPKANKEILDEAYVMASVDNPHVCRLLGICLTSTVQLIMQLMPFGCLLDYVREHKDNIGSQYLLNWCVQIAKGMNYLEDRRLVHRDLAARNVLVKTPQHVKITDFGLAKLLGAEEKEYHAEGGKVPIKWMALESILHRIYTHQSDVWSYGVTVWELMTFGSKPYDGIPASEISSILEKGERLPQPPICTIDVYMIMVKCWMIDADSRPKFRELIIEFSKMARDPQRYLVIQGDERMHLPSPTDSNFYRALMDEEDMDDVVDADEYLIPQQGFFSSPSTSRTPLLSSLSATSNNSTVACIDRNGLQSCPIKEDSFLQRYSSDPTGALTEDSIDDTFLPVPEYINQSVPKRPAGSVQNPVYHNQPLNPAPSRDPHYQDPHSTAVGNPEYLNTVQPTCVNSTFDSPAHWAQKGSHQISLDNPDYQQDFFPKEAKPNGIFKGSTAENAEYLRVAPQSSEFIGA
Chain of EGFR (Δ746-750) (P00533 other isoform, or with tags, fused parts or gaps del 1-668/del 746-750 limits assumed): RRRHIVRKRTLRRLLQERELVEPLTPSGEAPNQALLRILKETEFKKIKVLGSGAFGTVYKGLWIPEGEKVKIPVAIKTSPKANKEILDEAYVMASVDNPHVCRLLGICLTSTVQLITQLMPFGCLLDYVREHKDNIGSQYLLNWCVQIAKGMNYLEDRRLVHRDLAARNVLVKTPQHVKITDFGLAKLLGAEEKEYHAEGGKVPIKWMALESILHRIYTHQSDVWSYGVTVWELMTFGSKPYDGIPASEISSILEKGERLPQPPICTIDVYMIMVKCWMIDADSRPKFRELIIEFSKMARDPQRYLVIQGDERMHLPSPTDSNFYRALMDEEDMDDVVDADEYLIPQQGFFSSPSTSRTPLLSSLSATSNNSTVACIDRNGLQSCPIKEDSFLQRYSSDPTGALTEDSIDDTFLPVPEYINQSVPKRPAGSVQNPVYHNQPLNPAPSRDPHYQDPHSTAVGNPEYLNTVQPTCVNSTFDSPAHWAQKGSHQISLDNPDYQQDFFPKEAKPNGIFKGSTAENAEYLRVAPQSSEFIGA
Chain of EGFR Δ746-750/T790M/C797S mutant (P00533 other isoform, or with tags, fused parts or gaps T790M/C797S/del 1-668/del 746-750 limits assumed): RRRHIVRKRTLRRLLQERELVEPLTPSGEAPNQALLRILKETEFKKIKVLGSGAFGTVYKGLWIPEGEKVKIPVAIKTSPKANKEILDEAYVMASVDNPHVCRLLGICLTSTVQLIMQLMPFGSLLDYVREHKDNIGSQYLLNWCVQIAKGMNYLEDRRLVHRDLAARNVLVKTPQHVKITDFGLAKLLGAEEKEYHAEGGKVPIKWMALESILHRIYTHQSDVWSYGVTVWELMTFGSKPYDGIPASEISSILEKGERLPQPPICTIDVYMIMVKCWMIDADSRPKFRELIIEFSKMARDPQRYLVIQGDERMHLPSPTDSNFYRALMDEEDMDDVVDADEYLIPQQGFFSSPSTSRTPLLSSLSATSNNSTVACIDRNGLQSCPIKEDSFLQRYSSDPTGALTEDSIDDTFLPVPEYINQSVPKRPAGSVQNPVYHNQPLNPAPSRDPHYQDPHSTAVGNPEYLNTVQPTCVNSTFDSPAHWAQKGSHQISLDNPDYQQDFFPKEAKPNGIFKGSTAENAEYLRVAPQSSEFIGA
Chain of EGFR L858R mutant (P00533 25-1210 L858R): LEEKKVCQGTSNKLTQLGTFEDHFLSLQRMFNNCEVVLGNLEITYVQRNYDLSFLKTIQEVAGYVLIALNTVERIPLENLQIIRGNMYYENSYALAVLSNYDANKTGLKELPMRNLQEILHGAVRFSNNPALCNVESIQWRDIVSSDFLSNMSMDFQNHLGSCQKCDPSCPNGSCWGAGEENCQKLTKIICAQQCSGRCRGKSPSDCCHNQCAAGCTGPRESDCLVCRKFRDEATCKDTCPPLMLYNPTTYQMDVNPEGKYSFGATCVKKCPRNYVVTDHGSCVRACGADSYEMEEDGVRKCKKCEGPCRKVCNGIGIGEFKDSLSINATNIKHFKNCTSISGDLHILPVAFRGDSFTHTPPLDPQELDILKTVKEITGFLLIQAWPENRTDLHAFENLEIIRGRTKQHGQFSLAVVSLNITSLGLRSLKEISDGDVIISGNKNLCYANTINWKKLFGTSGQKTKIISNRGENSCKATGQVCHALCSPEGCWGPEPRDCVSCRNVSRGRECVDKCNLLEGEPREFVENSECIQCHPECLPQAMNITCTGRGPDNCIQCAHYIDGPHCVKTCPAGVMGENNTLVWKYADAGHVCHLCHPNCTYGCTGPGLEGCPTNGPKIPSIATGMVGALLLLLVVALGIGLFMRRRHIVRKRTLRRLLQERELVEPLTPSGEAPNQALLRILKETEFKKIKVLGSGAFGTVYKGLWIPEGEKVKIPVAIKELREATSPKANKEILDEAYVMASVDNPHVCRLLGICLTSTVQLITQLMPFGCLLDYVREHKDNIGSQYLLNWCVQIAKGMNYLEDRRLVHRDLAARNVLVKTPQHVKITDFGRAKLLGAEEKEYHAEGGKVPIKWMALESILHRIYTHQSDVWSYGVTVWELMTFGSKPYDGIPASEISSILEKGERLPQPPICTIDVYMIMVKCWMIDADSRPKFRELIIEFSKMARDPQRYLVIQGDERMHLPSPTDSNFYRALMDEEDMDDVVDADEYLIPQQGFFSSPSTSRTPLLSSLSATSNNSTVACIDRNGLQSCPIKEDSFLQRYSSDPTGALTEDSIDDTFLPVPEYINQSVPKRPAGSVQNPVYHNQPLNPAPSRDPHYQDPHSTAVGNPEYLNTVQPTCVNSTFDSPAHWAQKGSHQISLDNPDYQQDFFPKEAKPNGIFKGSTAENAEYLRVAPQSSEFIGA
Chain of EGFR L858R/T790M/C797S mutant (P00533 25-1210 T790M/C797S/L858R): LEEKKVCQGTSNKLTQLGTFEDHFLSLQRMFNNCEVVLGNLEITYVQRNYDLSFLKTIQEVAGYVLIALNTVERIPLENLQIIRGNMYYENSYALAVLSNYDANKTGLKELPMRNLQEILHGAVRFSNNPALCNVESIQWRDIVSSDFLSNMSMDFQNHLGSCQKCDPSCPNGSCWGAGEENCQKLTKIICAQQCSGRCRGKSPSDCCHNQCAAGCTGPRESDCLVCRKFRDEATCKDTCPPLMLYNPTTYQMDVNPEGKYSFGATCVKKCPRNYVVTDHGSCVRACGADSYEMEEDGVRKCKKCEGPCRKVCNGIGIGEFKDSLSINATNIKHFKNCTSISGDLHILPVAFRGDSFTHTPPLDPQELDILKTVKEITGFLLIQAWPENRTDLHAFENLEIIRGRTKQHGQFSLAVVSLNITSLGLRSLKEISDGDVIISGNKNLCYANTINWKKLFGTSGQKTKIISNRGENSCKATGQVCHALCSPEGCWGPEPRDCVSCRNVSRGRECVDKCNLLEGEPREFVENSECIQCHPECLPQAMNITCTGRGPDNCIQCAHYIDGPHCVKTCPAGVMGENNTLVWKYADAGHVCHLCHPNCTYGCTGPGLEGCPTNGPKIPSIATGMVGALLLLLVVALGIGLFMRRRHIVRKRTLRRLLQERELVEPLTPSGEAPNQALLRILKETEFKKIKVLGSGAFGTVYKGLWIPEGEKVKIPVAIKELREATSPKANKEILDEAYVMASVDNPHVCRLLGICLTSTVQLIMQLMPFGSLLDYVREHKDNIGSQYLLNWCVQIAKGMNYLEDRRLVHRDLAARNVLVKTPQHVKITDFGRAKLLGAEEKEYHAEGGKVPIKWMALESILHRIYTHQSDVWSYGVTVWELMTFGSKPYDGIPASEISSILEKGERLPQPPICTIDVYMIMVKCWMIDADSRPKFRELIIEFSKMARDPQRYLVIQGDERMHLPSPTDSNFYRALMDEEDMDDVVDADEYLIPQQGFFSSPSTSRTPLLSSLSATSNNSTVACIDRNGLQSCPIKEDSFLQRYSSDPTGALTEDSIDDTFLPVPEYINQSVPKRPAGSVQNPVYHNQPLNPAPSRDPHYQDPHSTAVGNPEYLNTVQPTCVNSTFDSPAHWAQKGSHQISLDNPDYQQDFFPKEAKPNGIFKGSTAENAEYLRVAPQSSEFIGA

Take `CN(C)CCNC(=O)c1ccc2c(c1)OCCOCc1c(cnn1C)-c1cc3c(n[nH]c3cn1)/C=C/2` [Cpd. 81, (11E)-N-[2-(dimethylamino)ethyl]-1-methyl-1,18,19,21-tetrahydro-8H-10,7,4-(ethan[1]yl[1,2]diylidene)pyrazolo[3,4-f][1,4,9,12,13]benzodioxatriazacyclooctadecine-15-carboxamide]: the IC50 stood at 14.1 nM in assay [1], 40.1 nM in assay [2], 28.1 nM in assay [3] and 94.6 nM in assay [4].

With `CN1CCOCCN(c2ccc(F)c(Cl)c2)c2cc3c(n[nH]c3cn2)/C=C/c2cn(C)nc2C1=O` [Cpd. 99, (17E)-6-(3-chloro-4-fluorophenyl)-12,15-dimethyl-2,7,8,11,12,15-hexahydro-6H-5,3-(azenometheno)dipyrazolo[3,4-f:3′,4′-j][1,4,14]oxadiazacyclohexadecin-13(10H)-one], the IC50 was found to be 8530 nM in assay [5], 84.4 nM in assay [2], 11.3 nM in assay [6] and 3380 nM in assay [7].

In the case of `Cc1ccc2c(n1)/C=C/c1n[nH]c3cnc(nc13)-c1cnn(C)c1C(C)OCCO2` (stereo not shown) [Cpd. 65, (18E)-8,9,16-trimethyl-8,9,11,12-tetrahydro-2H-5,3-(azenometheno)dipyrazolo[3,4-f:4′,3′-j]pyrido[2,3-n][1,4,9]dioxazacyclopentadecine], the IC50 came to 35.9 nM in assay [5], 281 nM in assay [2], 34.1 nM in assay [6] and 3.9 nM in assay [7].

`CN(C)CCNC(=O)c1ccc2c(c1)/C=C/c1n[nH]c3cnc(cc13)-c1cnn(C)c1OCCCO2` [Cpd. 71]: the IC50 in assay [1] was 3.7 nM; in assay [2], 2.4 nM; in assay [3], 1.6 nM; in assay [4] it was 3.9 nM.

Consider `CCc1nn(C)c2c1/C=C/c1n[nH]c3cnc(cc13)-c1cc(F)ccc1OCCN(C)C2=O` [Cpd. 62, (18E)-17-ethyl-7-fluoro-13,15-dimethyl-2,12,13,15-tetrahydro-5,3-(azenometheno)dipyrazolo[3,4-f:3′,4′-j][1,4]benzoxazacyclopentadecin-14(11H)-one], for which the IC50 in assay [5] was 4.1 nM; in assay [2], 45.5 nM; in assay [6] it was 5.7 nM; in assay [7], 0.5 nM.

With `Cn1ncc2c1COCCOc1ccccc1/C=C/c1n[nH]c3cnc-2nc13` [Cpd. 16, (18E)-8-methyl-8,9,11,12-tetrahydro-2H-5,3-(azenometheno)dipyrazolo[3,4-f:4′,3′-j][1,4,9]benzodioxazacyclopentadecine], the IC50 is 38.4 nM in assay [5], 32.9 nM in assay [2], 61.3 nM in assay [6] and 5.1 nM in assay [7].

`CCc1c2c(nn1C)C(=O)N(C)CCOc1c[nH]c(=O)cc1-c1cc3c(n[nH]c3cn1)/C=C/2` [Cpd. 38, (18E)-17-ethyl-13,16-dimethyl-2,12,13,16-tetrahydro-5,3-(azenometheno)dipyrazolo[3,4-f:3′,4′-j]pyrido[4,3-n][1,4]oxazacyclopentadecine-7,14(8H,11H)-dione] registered an IC50 in assay [2] of 964 nM.

In assay [2], `CN(C)CCNC(=O)c1ccc2c(c1)OCCCOc1c(cnn1C)-c1cc3c(n[nH]c3cn1)/C=C/2` [Cpd. 74, (11E)-N-[2-(dimethylamino)ethyl]-1-methyl-19,20-dihydro-1H,8H,18H-10,7,4-(ethan[1]yl[1,2]diylidene)pyrazolo[3,4-f][1,5,9,12,13]benzodioxatriazacyclooctadecine-15-carboxamide] yielded an IC50 of 4 nM.

Take `CN1CC[C@@H](NC(=O)c2ccc3c(c2)OCCOCc2c(cnn2C)-c2cc4c(n[nH]c4cn2)/C=C/3)C1` [Cpd. 87, (11E)-1-methyl-N-[(3R)-1-methylpyrrolidin-3-yl]-1,18,19,21-tetrahydro-8H-10,7,4-(ethan[1]yl[1,2]diylidene)pyrazolo[3,4-f][1,4,9,12,13]benzodioxatriazacyclooctadecine-15-carboxamide]: in assay [2], the IC50 turned out to be 34.6 nM.

In assay [2], `CN1CCC(NC(=O)c2ccc3c(c2)/C=C/c2n[nH]c4cnc(cc24)-c2cnn(C)c2OCCCO3)CC1` [Cpd. 97, (11E)-1-methyl-N-(1-methylpiperidin-4-yl)-19,20-dihydro-1H,8H,18H-10,7,4-(ethan[1]yl[1,2]diylidene)pyrazolo[3,4-f][1,5,9,12,13]benzodioxatriazacyclooctadecine-14-carboxamide] came in with an IC50 of 9.7 nM.

Turning to `CN1CC(NC(=O)c2ccc3c(c2)OCCCOc2c(cnn2C)-c2cc4c(n[nH]c4cn2)/C=C/3)C1` [Cpd. 83, (11E)-1-methyl-N-(1-methylazetidin-3-yl)-19,20-dihydro-1H,8H,18H-10,7,4-(ethan[1]yl[1,2]diylidene)pyrazolo[3,4-f][1,5,9,12,13]benzodioxatriazacyclooctadecine-15-carboxamide], the IC50 in assay [2] amounted to 34.4 nM.

With `Cn1ncc2c1COCCOc1ccc(C(=O)O)cc1/C=C/c1n[nH]c3cnc-2cc13` [Cpd. 92, (11E)-1-methyl-1,18,19,21-tetrahydro-8H-10,7,4-(ethan[1]yl[1,2]diylidene)pyrazolo[3,4-f][1,4,9,12,13]benzodioxatriazacyclooctadecine-14-carboxylic acid], the IC50 in assay [2] worked out at 47.1 nM.

`Cc1ccc2c(n1)/C=C/c1n[nH]c3cnc(cc13)-c1cnn(C)c1C(C)OCCO2` (stereo not shown) [Cpd. 95, (18E)-8,9,16-trimethyl-8,9,11,12-tetrahydro-2H-5,3-(azenometheno)dipyrazolo[3′,4′:9,10;4″,3″:13,14][1,4]dioxacyclopentadecino[6,5-b]pyridine] showed an IC50 in assay [2] of 139 nM.

In the case of `CN1CCC(NC(=O)c2ccc3c(c2)OCCOCc2c(cnn2C)-c2cc4c(n[nH]c4cn2)/C=C/3)CC1` [Cpd. 85, (11E)-1-methyl-N-(1-methylpiperidin-4-yl)-1,18,19,21-tetrahydro-8H-10,7,4-(ethan[1]yl[1,2]diylidene)pyrazolo[3,4-f][1,4,9,12,13]benzodioxatriazacyclooctadecine-15-carboxamide], the IC50 in assay [2] was 70 nM.

Regarding `CC(C)NC(=O)c1ccc2c(c1)OCCCOc1c(cnn1C)-c1cc3c(n[nH]c3cn1)/C=C/2` [Cpd. 77, (11E)-1-methyl-N-(propan-2-yl)-19,20-dihydro-1H,8H,18H-10,7,4-(ethan[1]yl[1,2]diylidene)pyrazolo[3,4-f][1,5,9,12,13]benzodioxatriazacyclooctadecine-15-carboxamide], the IC50 in assay [2] was 34.6 nM.

As for `Cn1ncc2c1COCCOc1ccccc1/C=C/c1n[nH]c3cnc-2cc13` [Cpd. 63, (11E)-1-methyl-1,18,19,21-tetrahydro-8H-10,7,4-(ethan[1]yl[1,2]diylidene)pyrazolo[3,4-f][1,4,9,12,13]benzodioxatriazacyclooctadecine], the IC50 in assay [5] turned out to be 2.8 nM; in assay [2], 14.9 nM; in assay [6] it was 7.7 nM; in assay [7], 0.2 nM.

On to `CCNC(=O)c1ccc2c(c1)/C=C/c1n[nH]c3cnc(cc13)-c1cnn(C)c1COCCO2` [Cpd. 89, (11E)-N-ethyl-1-methyl-1,18,19,21-tetrahydro-8H-10,7,4-(ethan[1]yl[1,2]diylidene)pyrazolo[3,4-f][1,4,9,12,13]benzodioxatriazacyclooctadecine-14-carboxamide], for which, in assay [2], the IC50 is 23.8 nM.

Consider `CN1CC[C@@H](NC(=O)c2ccc3c(c2)OCCCOc2c(cnn2C)-c2cc4c(n[nH]c4cn2)/C=C/3)C1` [Cpd. 82, (11E)-1-methyl-N-[(3R)-1-methylpyrrolidin-3-yl]-19,20-dihydro-1H,8H,18H-10,7,4-(ethan[1]yl[1,2]diylidene)pyrazolo[3,4-f][1,5,9,12,13]benzodioxatriazacyclooctadecine-15-carboxamide], for which the IC50 in assay [2] was determined as 28.3 nM.

The compound `Cn1ncc2c1OCCCOc1ccc(F)cc1/C=C/c1n[nH]c3cnc-2cc13` [Cpd. 100, (11E)-14-fluoro-1-methyl-19,20-dihydro-1H,8H,18H-10,7,4-(ethan[1]yl[1,2]diylidene)pyrazolo[3,4-f][1,5,9,12,13]benzodioxatriazacyclooctadecine] displayed an IC50 in assay [2] of 24 nM.
